Data from PMC6830221, “Engineering a surrogate human heteromeric α/β glycine receptor orthosteric site exploiting the structural homology and stability of acetylcholine-binding protein” (IUCrJ, 2019).
Values joined by “and” are separate entries in the source; they are usually repeats but may differ in a detail not shown here. Identical values can stand only once. Like-named read-outs stand apart in the source and are kept apart here.

Key:
[1] = target: AcAChBP; conditions: ref Hansen et al., cited from earlier work
[2] = ref Haynes, 2015; cited from earlier work
[3] = target: T1, WT AcAChBP (Aplysia californica, UniProt Q8WSF8); experiment: biochemical
T1 sequence (Q8WSF8 entry or part of it): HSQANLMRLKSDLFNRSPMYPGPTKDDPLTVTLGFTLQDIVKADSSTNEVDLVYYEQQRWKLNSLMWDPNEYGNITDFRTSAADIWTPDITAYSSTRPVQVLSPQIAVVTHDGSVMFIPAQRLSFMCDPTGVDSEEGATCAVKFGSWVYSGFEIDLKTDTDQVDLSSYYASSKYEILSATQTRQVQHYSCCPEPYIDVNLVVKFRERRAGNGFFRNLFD
Protocol: (§1) The interaction of strychnine with AcAChBP and GBP was investigated using ITC. Measurements were carried out with a MicroCal PEAQ-ITC (Malvern Panalytical) at 25°C. The protein solutions (10 µM AcAChBP, 40 µM GBP) were prepared by dialysis against buffer (50 mM Tris–HCl pH 7.5, 250 mM NaCl) at 4°C overnight. Strychnine solutions (concentrations of 100 and 500 µM) were prepared in the same buffer. For the experiments, the initial injection of one 0.4 µl aliquot was followed by 17 × 2 µl injections at 3 min intervals. In each case the injection needle acted as a paddle, stirring the cell contents at 750 rev min^−1, and the reference was set at 10 µcal s^−1. Data were analyzed using the software supplied by the manufacturer to calculate K d, ΔH, −TΔS, ΔG and N, which were derived from a one-binding-site model. Control measurements, buffer into buffer, strychnine into buffer and buffer into protein solutions, were used to determine an appropriate offset adjustment. Examples of the data, averaged parameters and standard errors derived from three titrations are presented in Supplementary Fig. S1.

[4] = target: T2, variant III, glycine-binding protein (GBP) (Aplysia californica, UniProt Q8WSF8, C207G/C208T/G162E/I135S/P209G/Q74R/S206K/T53F/Y110A); experiment: biochemical
T2 sequence (Q8WSF8 18-236 C207G/C208T/G162E/I135S/P209G/Q74R/S206K/T53F/Y110A limits assumed): as the sequence (Q8WSF8 entry or part of it) above, with T36F, Q57R, Y93A, I118S, G145E, S189K, C190G, C191T, P192G counted along it
Protocol: as §1

[5] = target: T2, variant III, glycine-binding protein (GBP); experiment: biochemical; remark: listed apart in the source
Protocol: (§2) Measurements were recorded using a PerkinElmer LS-55 spectrophotometer with the detector sensitivity set to 750 V. Stock solutions of 10 µg ml^−1 GBP and AcAChBP were prepared, along with two strychnine stock solutions of 100 µM and 1 mM in the same buffer as used for the ITC experiments. The protein samples (2 ml) were excited at a wavelength of 280 nm, and emission was recorded between 300 and 400 nm. For GBP, aliquots of 20 µl of the 1 mM strychnine stock were used, followed by mixing. For AChBP, additions of 2 µl of the 100 µM strychnine stock were made, followed by mixing. Experiments were carried out in triplicate and the percentage change in fluorescence was calculated. Data were analyzed using Microsoft Excel and GraphPad Prism 7.

[6] = target: AcAChBP; conditions: ref Brams et al., 2011; cited from earlier work
[7] = target: recombinant homomeric GlyR-α3; conditions: surface plasmon resonance, ref Huang et al., 2015; cited from earlier work
[8] = target: AcAChBP variant I (T53F, Q74R, Y110A, I135S, W164F) (Aplysia californica, UniProt Q8WSF8, I135S/Q74R/T53F/W164F/Y110A); conditions: Table S1, Variant-I, biphasic melting
Sequence of AcAChBP variant I (T53F, Q74R, Y110A, I135S, W164F) (Q8WSF8 18-236 T53F/Q74R/Y110A/I135S/W164F limits assumed): as the sequence (Q8WSF8 entry or part of it) above, with T36F, Q57R, Y93A, I118S, W147F counted along it
Protocol: (§3) Fluorescence-based screening by differential scanning fluorimetry (DSF; see, for example, Eadsforth et al., 2012[▸]) was used to determine the melting temperature (T m) values. An Mx3005P RT PCR system (Stratagene) was used to monitor protein unfolding by the increase in fluorescence of SYPRO Orange dye (Invitrogen). Assays were carried out in 40 µl volumes with proteins at around 10 µM in 50 mM Tris–HCl, 250 mM NaCl pH 7.5 in 96-well RT PCR plates (ABgene). To investigate the influence of the chemical probe strychnine, 1 µl of strychnine dissolved in DMSO or buffer and then diluted with buffer was incubated with the protein solutions for 5 min prior to 71 cycles of 1°C temperature increments starting at 25°C. After each 1°C increase the sample was excited at 492 nm and fluorescence emission was recorded at 610 nm. The melting temperatures were plotted against a reference control sample of DMSO only. The strychnine concentration varied between […], with a requirement to limit the concentration of DMSO in the final mixture to <2.5%.

[9] = target: AcAChBP variant II (T53F, Q74R, Y110A, I135S, G162E) (Aplysia californica, UniProt Q8WSF8, G162E/I135S/Q74R/T53F/Y110A); conditions: Table S1, Variant-II
Sequence of AcAChBP variant II (T53F, Q74R, Y110A, I135S, G162E) (Q8WSF8 18-236 T53F/Q74R/Y110A/I135S/G162E limits assumed): as the sequence (Q8WSF8 entry or part of it) above, with T36F, Q57R, Y93A, I118S, G145E counted along it
Protocol: as §3

[10] = target: T2, variant III, glycine-binding protein (GBP)
Protocol: as §3

[11] = target: T1, WT AcAChBP; experiment: Tryptophan fluorescence-quenching assay; type: binding; design: made in house; host or cells: baculovirus/Sf9
Protocol: as §2

[12] = target: recombinant homomeric GlyR-α1; conditions: radioligand saturation assay, ref Wöhri et al., 2013; cited from earlier work
[13] = target: recombinant homomeric GlyR-α1; conditions: ITC, ref Wöhri et al., 2013; cited from earlier work
[14] = target: recombinant homomeric GlyR-α3; conditions: ITC, ref Huang et al., 2015; cited from earlier work
[15] = target: AcAChBP variant II (Aplysia californica, UniProt Q8WSF8, G162E/I135S/Q74R/T53F/Y110A)
Sequence of AcAChBP variant II (Q8WSF8 18-236 T53F/Q74R/Y110A/I135S/G162E limits assumed): as the sequence (Q8WSF8 entry or part of it) above, with T36F, Q57R, Y93A, I118S, G145E counted along it
Protocol: as §2

[16] = target: AcAChBP variant I (Aplysia californica, UniProt Q8WSF8, I135S/Q74R/T53F/W164F/Y110A)
Sequence of AcAChBP variant I (Q8WSF8 18-236 T53F/Q74R/Y110A/I135S/W164F limits assumed): as the sequence (Q8WSF8 entry or part of it) above, with T36F, Q57R, Y93A, I118S, W147F counted along it
Protocol: as §2

[17] = target: T2, variant III, glycine-binding protein (GBP); remark: listed apart in the source
[18] = binding to AcAChBP, stopped-flow spectrofluorimetry, 2005

O=C1C[C@@H]2OCC=C3CN4CC[C@]56c7ccccc7N1[C@H]5[C@H]2[C@H]3C[C@H]46 [strychnine]
Kd ([1]; AcAChBP, stopped-flow spectrofluorimetry assay, 2004): 15 nM | pKa [2]: approximately 8.3 | Kd [3]: 74.1 nM | Kd [4]: 28800 nM | Kd ([5]; Kd, tryptophan fluorescence, GBP, n=3): 26600 nM and 27000 nM | Ki [6]: 38 nM | Kd [7]: 43 nM | ∆Tm (C) + strychnine ([8]; first value): +5 C | ∆Tm (C) + strychnine ([8]; second value): +25 C | ∆Tm (C) + strychnine [9]: +5 C | ∆Tm (C) + strychnine ([10]; Table S1, Variant-III (GBP)): +3 C | Kd [11]: 155 nM | Kd [12]: 52 nM | Kd [13]: 138 nM | Kd [14]: 52 nM

CN1[C@@H]2CC[C@H]1C[C@@H](OC(=O)c1c[nH]c3ccccc13)C2 [tropisetron]
Kd [1, 18]: 480 nM | Kd [11]: 275 nM

CN1CCC[C@H]1c1cccnc1 [nicotine]
Kd [1, 18]: 250 nM | Kd ([11]; binding to WT AcAChBP, tryptophan fluorescence, three titrations, read-out: Kd): 245 nM | ligand binding (tryptophan fluorescence) [15]: Neither variant I nor variant II appeared to be able to bind nicotine | ligand binding (tryptophan fluorescence) [16]: Neither variant I nor variant II appeared to be able to bind nicotine

NCC(=O)O [glycine]
association with variant III (ITC) ([4]; variant III (GBP)): failed to show any binding | association with variant III (fluorescence assay) ([5]; variant III (GBP)): failed to show any binding | ΔTm ([10]; ligand binding to variant III (GBP), DSF): +2 °C | association with variant III (biolayer interferometry) [17]: failed to show any binding | ligand binding (tryptophan fluorescence) [15]: neither did the fluorescence assay register any glycine binding | ligand binding (tryptophan fluorescence) [16]: neither did the fluorescence assay register any glycine binding
